Measured values published in US6855512B2, “Methods for identifying inhibitors of cytochrome P450RAI” (Allergan, Inc., priority 2000, dated 2005).

Biological target: T1, P450RAI-1 (Homo sapiens, UniProt O43174)
T1 construct: expressed in transfected cells; host or cells: HeLa (stably transfected, hygromycin selection)
T1 sequence (O43174 1-497): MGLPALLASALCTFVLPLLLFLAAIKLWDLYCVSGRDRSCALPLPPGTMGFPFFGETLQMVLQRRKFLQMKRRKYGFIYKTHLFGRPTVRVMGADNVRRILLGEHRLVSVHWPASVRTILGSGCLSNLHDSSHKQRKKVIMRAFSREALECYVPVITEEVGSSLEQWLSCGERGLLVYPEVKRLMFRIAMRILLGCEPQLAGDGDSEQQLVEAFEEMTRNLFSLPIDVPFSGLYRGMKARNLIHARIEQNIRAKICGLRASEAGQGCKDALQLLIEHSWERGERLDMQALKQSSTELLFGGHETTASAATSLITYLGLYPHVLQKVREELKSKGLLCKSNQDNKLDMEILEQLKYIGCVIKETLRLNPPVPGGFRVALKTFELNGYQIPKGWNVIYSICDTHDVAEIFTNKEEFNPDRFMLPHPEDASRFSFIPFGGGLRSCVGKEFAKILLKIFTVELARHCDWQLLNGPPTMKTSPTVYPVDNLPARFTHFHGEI
Test: P450RAI-1 cell-based inhibitor assay (intact HeLa)
Conditions: read-out: P450RAI INHIBITION DATA INTACT HELA IC50
Description: P450RAI-1 Cell-Based Inhibitor Assay:
P450RAI-1 stably transfected HeLa cells are maintained in […] tissue culture dishes in Modified Eagle's Medium (MEM) containing 10% Fetal Bovine Serum (FBS) and 100 μg/ml hygromycin. Exponentially growing cells are harvested by incubating in trypsin. Cells are then washed with 1× Phosphate Buffered Saline (PBS) and plated in a 48-well plate at 5×10^5 cells in 0.2 ml MEM medium containing 10% FBS and 0.05 μCi [^3H]-RA in the presence or absence of increasing concentrations of the test compounds. The compounds are diluted in 100% DMSO and then added in triplicate wells at either 10, 1 or 0.1 μM final concentration. As a positive control for RA metabolism inhibition, cells are also incubated with ketoconazole at 100, 10 and 1 μM. Cell are incubated for 3 hours at 37° C. […] The water soluble radioactivity is quantified using β-scintillation counter. IC50 values represent the concentration of inhibitor required to inhibit all-trans-RA metabolism by 50 percent and are derived manually from log-transformed data.

| IC50 | Compound |
| --- | --- |
| 1.8 µM | CCC1(CC)CC(C)(C)c2cc(C(=O)Nc3ccc(C(=O)O)c(F)c3)cc(Br)c2O1 [Compound 206] |
| 7.2 µM | CC1(C)CCSc2ccc(C#Cc3ccc(C(=O)O)cn3)cc21 [Compound 238] |
| 5.1 µM | CC1=C(/C=C/C#Cc2ccc(C(=O)O)cn2)C(C)(C)CCC1 [Compound 244] |
| 1.9 µM | COc1ccc(C#Cc2ccc(C(=O)O)cc2)cc1C12CC3CC(CC(C3)C1)C2 [Compound 214] |
| > 10 µM | COc1cc(C(=O)Nc2ccc(C(=O)O)c(F)c2)cc2c1OC(C)(C)CC2(C)C [Compound 226] |
| 1 µM | CC1(C)CC(C)(C)c2cc(C(=O)Nc3ccc(C(=O)O)c(F)c3)cc(C(F)(F)F)c2O1 [Compound 205] |
| 3.1 µM | CC1(C)CCC(C)(C)c2c1cc(O)c(C(=O)Nc1ccc(C(=O)O)cc1)c2F [Compound 246] |
| 1.7 µM | CC(C)(C)c1cc(C#Cc2ccc(C(=O)O)cc2)cc(Cl)c1O [Compound 209] |
| 0.7 µM | CC1(C)CC(C)(C)c2cc(C(=O)Nc3ccc(C(=O)O)c(F)c3)cc(C3CC3)c2O1 [Compound 204] |
| 6 µM | CC1(C)CC(C)(C)c2cc(C(=O)Nc3ccc(C(=O)O)c(F)c3)ccc2O1 [Compound 228] |
| 4.7 µM | COc1ccc(-c2ccc3cc(C(=O)O)ccc3c2)cc1C12CC3CC(CC(C3)C1)C2 [Compound 234] |
| 0.62 µM | CC1(C)CC(C)(C)c2cc(C(=O)Nc3ccc(C(=O)O)c(F)c3)cc(Cl)c2O1 [Compound 203] |
| 6.3 µM | CC1=C(/C=C/C#Cc2ccc(C(=O)O)cc2)C(C)(C)CCC1 [Compound 217] |
| > 10 µM | CCOc1c(I)cc(C(=O)Nc2ccc(C(=O)O)c(F)c2)cc1C(C)(C)C [Compound 222] |
| 3.3 µM | CC1(C)CCC(C)(C)c2cc(C#Cc3ccc(C(=O)O)cc3)ccc21 [Compound 216] |
| > 10 µM | CCOc1c(Br)cc(C(=O)Nc2ccc(C(=O)O)c(F)c2)cc1C(C)(C)C [Compound 223] |
| 4.2 µM | CC1(C)CCC(O)c2ccc(C#Cc3ccc(C(=O)O)cc3)cc21 (stereo not drawn) [Compound 232] |
| 7 µM | CC1=C(/C=C/C#Cc2ccc(C(=O)O)cc2)C(C)(C)CCC1(C)C [Compound 212] |
| 4.1 µM | CC1(C)CC(C)(C)c2cc(C(=O)Oc3ccc(C(=O)O)cc3)ccc2O1 [Compound 231] |
| 5.1 µM | CC1(C)CCC(C)(C)c2cc(C#Cc3ccc(C(=O)O)c(F)c3)ccc21 [Compound 230] |

| IC50 | Compound |
| --- | --- |
| 7.4 µM | CC1(C)CCC(C)(C)c2cc(C(=O)Oc3ccc(C(=O)O)cc3)ccc21 [Compound 243] |
| > 10 µM | CC1(C)CCOc2c(Br)cc(C(=O)Nc3ccc(C(=O)O)c(F)c3)cc21 [Compound 225] |
| 5.5 µM | CC1(C)CCC(C)(C)c2cc(-c3ccc4cc(C(=O)O)ccc4c3)ccc21 [Compound 241] |
| 5.8 µM | CC1(C)CCC(C)(C)c2cc(C(=O)/C=C/c3ccc(C(=O)O)cc3)ccc21 [Compound 242] |
| 5.5 µM | CC1(C)CC(C)(C)c2cc(C(=O)Nc3ccc(C(=O)O)c(F)c3)cc(-c3ccccc3)c2O1 [Compound 224] |
| 3.3 µM | CC1=C(/C=C/C#Cc2ccc(C(=O)O)s2)C(C)(C)CCC1 [Compound 245] |
| 7 µM | CC(C)(C)c1cc(C#Cc2ccc(C(=O)O)cc2)cc(C(C)(C)C)c1O [Compound 235] |
| 3.2 µM | CC1=C(/C=C/C#Cc2ccc(C(=O)O)cc2)C(C)(C)CCS1 [Compound 219] |
| 1 µM | Cc1cc(C(=O)Nc2ccc(C(=O)O)c(F)c2)cc2c1OC(C)(C)CC2(C)C [Compound 220] |
| 1.3 µM | Cc1cc(C(=O)Nc2ccc(C(=O)O)cc2)cc2c1OC(C)(C)CC2(C)C [Compound 227] |
| 1.6 µM | CC1=C(/C=C/C#Cc2ccc(C(=O)O)c(F)c2)C(C)(C)CCC1 [Compound 229] |
| 3.4 µM | CC1(C)CCCc2cc(C#Cc3ccc(C(=O)O)cc3)ccc21 [Compound 218] |
| 3 µM | CC1(C)CCSc2ccc(C#Cc3ccc(C(=O)O)s3)cc21 [Compound 240] |
| 1.3 µM | O=C(O)c1ccc2cc(-c3ccc(O)c(C45CC6CC(CC(C6)C4)C5)c3)ccc2c1 [Compound 233] |
| 1 µM | CC1(C)CCCc2ccc(C#Cc3ccc(C(=O)O)cc3)cc21 [Compound 208] |
| 0.6 µM | CC1(C)CCSc2ccc(C#Cc3ccc(CC(=O)O)cc3)cc21 [Compound 202] |
| > 10 µM | CC1(C)CC(C)(C)c2cc(C(=O)Nc3ccc(C(=O)O)c(F)n3)cc(Cl)c2O1 [Compound 221] |
| 6.8 µM | CC1(C)CCC(C)(C)c2cc(C(=O)Nc3ccc(C(=O)O)c(F)c3)ccc21 [Compound 237] |
| 6.2 µM | CC1(C)CCSc2ccc(C#Cc3ccc(C(=O)O)cc3)cc21 [Compound 215] |
